{"source": "patent US20210275546A1", "about": "“HIGH DRUG LOAD SOLID ORAL DOSAGE FORMS OF DEXAMETHASONE” (Jubilant Pharma Holdings Inc., priority 2020, published 2021)", "origin": "cited, not measured here", "note": "Entries after “also recorded” stand apart in the source; their conditions may differ."}
{"smiles": "C[C@@H]1C[C@H]2[C@@H]3CCC4=CC(=O)C=C[C@]4(C)[C@@]3(F)[C@@H](O)C[C@]2(C)[C@@]1(O)C(=O)CO", "note": "[Dexamethasone, 9-fluoro-11β,17,21trihydroxy-16α-methylpregna-1,4-diene-3,20-dione]", "values": [{"measurement": "solubility in acetone", "setting": "acetone", "value": "sparingly soluble"}, {"measurement": "solubility in dichloromethane", "setting": "dichloromethane", "value": "slightly soluble"}, {"measurement": "solubility in ethanol", "setting": "ethanol", "value": "sparingly soluble"}, {"measurement": "solubility in methanol", "setting": "methanol", "value": "sparingly soluble"}, {"measurement": "solubility in water", "setting": "water", "value": "practically insoluble; also recorded: poorly water-soluble"}]}
